For one test, the system named is Jurkat. The experiment in a line: Growth inhibition in tumor cell lines (Table 2). In kind it is cell-based, human. The following applies: leukemia, PTEN deficiency.
In another test the test system is U2OS. Kind of test: Growth inhibition in tumor cell lines (Table 2). The class given is cell-based, human. The note with it: Osteosacroma, WT, lack of EGFR.
In the next test the test system is U2OS Wild type. Kind of test: siRNA inhibition of MMR, p53 and REV functions, alamar blue growth inhibition. In kind it is cell-based, human. The note with it: for Fold improvement in IC50, mlh1: mlh1 siRNA vs control; for IC50: no siRNA knock out, read-out: IC50, Control; for Fold improvement in IC50, p53: p53 siRNA vs control; for Fold improvement in IC50, rev: rev siRNA vs control. On the procedure:
(§1) siRNA specific for different genes is purchased from Dharmacon (Thermo. Fisher Scientific Dharmacon Products, Lafayette, Colo. 80026) and the protocol recommended by the supplier is utilized. Confluent cells are trypsinized and 5000 cells are seeded in a well in the presence or absence of siRNA in 100 μL medium. The cells are incubated with siRNA for two days. A non-covalent DNA binding agent of the invention is added in a 10 μL volume and incubated for another 48 hours. After treatment with the agent, the medium is replaced with 1% alamar blue containing medium to measure fluorescence after two hours.
as §1, with “from Dharmacon (Thermo Fisher Scientific” for “from Dharmacon (Thermo. Fisher Scientific”, “two hours. […] The results are presented in FIGS. 14-18 (SEQ ID NO:3-12, respectively) and Table 7.” for “two hours.”
(Resazurin is reduced to fluorescent resorufin, in cell work by metabolically active cells.)

Another test concerns yeast rad50 mutation. Kind of test: Alamar Blue cell survival assay in yeast cells. The class given is cell-based. On the procedure:
(§2) The cells are diluted 100-fold in yeast complete medium. 100 μL of diluted cells are seeded in 96 well plates with or without a non-covalent DNA binding compound and incubated for 24 hours at 30° C. The following day, an equal volume of yeast complete medium containing 1% alamar blue is added and incubated at 30° C. for two hours. Fluorescence intensity is measured in a fluorescent reader to calculate the inhibition effect of non-covalent DNA binding agents in mutant and wild type yeast cells.
(§3) Yeast cells that carry mutations in different genes involved in homologous recombination (rad 50, rad51, rad52, and rad57) and nucleotide excision/double strand repair (rad1) are grown to stationary culture overnight.

The test system of another test is Wild type yeast. The experiment in a line: Alamar Blue cell survival assay in yeast cells. In kind it is cell-based. On the procedure:
as §2, §3

Another test deals with yeast rad1 mutation. Kind of test: Alamar Blue cell survival assay in yeast cells. The class given is cell-based. The procedure:
as §2, §3

A further test has as its system yeast rad52 mutation. The experiment in a line: Alamar Blue cell survival assay in yeast cells. The class given is cell-based. The procedure:
as §2, §3

A further test deals with yeast rad51 mutation. Kind of test: Alamar Blue cell survival assay in yeast cells. In kind it is cell-based. The procedure: as §2, §3
The subject of another test is SW480. Kind of test: Growth inhibition in tumor cell lines (Table 2). The class given is cell-based, human. The note with it: SW480, colon, KRAS mutation. On the procedure:
(§4) Three novel non-covalent DNA binding agents of the invention, NSC 718813, NSC 723734 and NSC 726260, are tested in five different EGFR-resistant, K-Ras mutant cancer cell lines. These cell lines represent colorectal (SW480, SW620 and HCT116) and breast cancer (MDA-MB-231 and […]).
(§5) The in vitro assays to evaluate the anticancer potential of non-covalent DNA binding agents were measured by using one or more of the assays described below.
(§6) Tumor cells are plated in 96 well plates at a density of 8,000 to 10,000 cells per well in 100 uL volume and grown overnight. On the second day, the cells are supplemented with medium containing an appropriate dilution of the compounds to be tested. The cells are treated with the test compounds for two more days and the growth medium was replaced with fresh medium containing 3% Alamar Blue, incubated for 2-3 hours and plates are read in a SpectraMax Gemini XS fluorescence plate reader (Molecular Devices).

The subject of the next test is SW620. The experiment in a line: Growth inhibition in tumor cell lines (Table 2). The following applies: SW620, colon, KRAS mutation. In kind it is cell-based, human. On the procedure: as §4, §5, §6
For the next test, the system named is HCT116. Kind of test: Growth inhibition in tumor cell lines (Table 2). The class given is cell-based, human. The following applies: HCT116, colon, KRAS mutation, MLH1 deficiency. The procedure: as §4, §5, §6
Another test has as its system CEM. Kind of test: Growth inhibition in tumor cell lines (Table 2). In kind it is cell-based, human. The note with it: leukemia, PTEN deficiency. The procedure: as §4, §5, §6
The test system of the next test is MDA231. Kind of test: Growth inhibition in tumor cell lines (Table 2). In kind it is cell-based, human. The following applies: MDA231, breast, KRAS & BRAF (ERK+). The procedure: as §4, §5, §6
In a further test the test system is MDA-MB-468. The experiment in a line: Growth inhibition in tumor cell lines (Table 2). The class given is cell-based, human. The note with it: MDA-MB-468, breast, ERK+ (EGFR over expression), PTEN deficiency. On the procedure: as §4, §5, §6
In test [1] the test system is SW620 colon tumor xenograft. The experiment in a line: SW620 colon tumor xenograft model. In kind it is in vivo, mice.
A further test deals with SW403. Kind of test: Growth inhibition in tumor cell lines (Table 2). In kind it is cell-based, human. The note with it: SW403, colon, WT (EGFR over expression).

The source of these data is US9744175B2, “Compositions of combinations of non-covalent DNA binding agents and anti-cancer and/or anti-inflammatory agents and their use in disease treatment” (INDUS PHARMACEUTICALS, INC., priority 2012, dated 2017).

Regarding `COc1cc2c(cc1OCCCCCOc1cc3c(cc1OC)C(=O)N1CCC[C@H]1C(=O)N3)N=C[C@@H]1CCCN1C2=O` [NSC 718813], the IC50 is 17 ± 0.2 nM in the test with Jurkat; 202 nM with U2OS; 300 nM with U2OS Wild type; 90000 nM in the test with yeast rad50 mutation; greater than 250000 nM with Wild type yeast; 11000 nM in the test on yeast rad1 mutation. Also, the IC50 in the test on yeast rad52 mutation was determined as 90000 nM; in the test with yeast rad51 mutation, 7000 nM; in the test with SW480 it was 48 nM; with SW620, 236 ± 37.2 nM; in the test on HCT116, 17 nM; in the test with CEM it was 51 ± 0.6 nM. Moreover, the 50% inhibitory concentration (IC50) with MDA231 is 54 nM; with MDA-MB-468 it was 8 ± 1.2 nM; with SW403, 210 nM. Besides, the “Fold improvement in IC50, mlh1” value with U2OS Wild type worked out at 3.0 fold. Also, the “Fold improvement in IC50, p53” value in the test with U2OS Wild type is reported as 10 fold. Besides, the “Fold improvement in IC50, rev” value with U2OS Wild type was determined as 5 fold. Also, the “tumor burden in SW620 colon tumor xenograft model” value in test [1] (Q1 Dx5 IV followed by Q4Dx3 IP administration) is reported as “reduces tumor burden”.
As for `COc1cc2c(cc1OCCCCN1CCN(CCCCOc3cc4c(cc3OC)C(=O)N3CCC[C@H]3C=N4)CC1)N=C[C@@H]1CCCN1C2=O` [NSC 723734], the half-maximal inhibitory concentration (IC50) in the test on Jurkat is 45 ± 4 nM; with U2OS it was 178 nM; in the test on U2OS Wild type, 70 nM; with yeast rad50 mutation it was 17000 nM; in the test with Wild type yeast, greater than 250000 nM; in the test on yeast rad1 mutation, 15000 nM. For the same compound, the IC50 was found to be 50000 nM with yeast rad52 mutation; 28000 nM in the test with yeast rad51 mutation; 575 nM in the test with SW480; 175 ± 25 nM with SW620; 160 nM in the test with HCT116; 49 ± 0.8 nM with CEM. In addition, the half-maximal inhibitory concentration (IC50) in the test with MDA231 amounted to 394 nM; in the test with MDA-MB-468, 22 ± 0.7 nM; in the test on SW403, 550 nM. Moreover, the “Fold improvement in IC50, mlh1” value in the test on U2OS Wild type was determined as 3.5 fold. Further, in the test with U2OS Wild type, the “Fold improvement in IC50, p53” value was determined as 1.2 fold. The “Fold improvement in IC50, rev” value in the test on U2OS Wild type is reported as greater than 70 fold. The “dose-reduction index (DRI) of combination with cisplatin” value in test [1] (SW620 colon tumor xenograft mouse model) is on record as “significant dose-reduction index (DRI)”. For the same compound, the “quantitative analysis of combination with cisplatin” value in test [1] (combination doses achieving >50% efficacy) was “synergistic with cisplatin”. Moreover, the “synergy with cisplatin in SW620 colon tumor xenograft mouse model” value in [1] (intermittent IP administration of the two drugs) was “excellent synergy with cisplatin”. For the same compound, the “synergy with cisplatin at lower (minimally active) cisplatin dose” value in [1] (intermittent IP administration, SW620 xenograft in mice) was “synergistic with cisplatin and restores antitumor activity of cisplatin”. Moreover, the “activity in SW620 colon tumor xenograft model” value in test [1] (intraperitoneal, once daily administration for 7 days) is “superior activity to NSC718813”. Moreover, the “reduction in SW620 colon tumor xenograft” value in [1] (intravenous and intraperitoneally administered) is recorded as “dose-dependent reduction”.
For the compound `COc1cc2c(cc1OCCCC(=O)Nc1ccc3ccc4cccc5ccc1c3c45)N=C[C@@H]1CCCN1C2=O` [NSC 726260], the IC50 with Jurkat was 114 ± 26.7 nM; in the test on U2OS, 397 nM; with U2OS Wild type, 400 nM; with yeast rad50 mutation, 20000 nM; in the test on Wild type yeast it was 45000 nM; in the test on yeast rad1 mutation it was 15000 nM. In addition, the half-maximal inhibitory concentration (IC50) in the test with yeast rad52 mutation turned out to be 15000 nM; in the test on yeast rad51 mutation it was 4500 nM; in the test with SW480, 1080 nM; in the test on SW620, 1050 ± 50 nM; in the test on HCT116, 550 nM; in the test on CEM, 161 ± 0.4 nM. Also, the values for the IC50 in the test with MDA231, with MDA-MB-468 and with SW403 were 501 nM, 364 nM and 1020 nM, respectively. For the same compound, in the test with U2OS Wild type, the “Fold improvement in IC50, mlh1” value turned out to be 135 fold. Besides, in the test with U2OS Wild type, the “Fold improvement in IC50, p53” value is listed as 1.1 fold. The “Fold improvement in IC50, rev” value in the test with U2OS Wild type was 135 fold. Besides, the “pharmacological activity in SW620 colon tumor xenograft model” value in [1] (combined IV and IP administration) is listed as “limited pharmacological activity”.

As a reminder, the IC50 is the concentration needed to halve the response being measured.
